Reference: ChEMBL document CHEMBL1201862, “PubChem BioAssay data set” (2004)
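Dose response: 5 concentrations. Exposure: 48 h. Format: 96-well plates. Endpoint: linear interpolation; highest concentration if not reached. GI50 marks 50% less growth.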 Activity calls are given as the source filed them. Rule as the data show it: active = GI50 up to about 1.1 µM and inactive = higher.

What was measured:
Assay in all cases: NCI anticancer screen, dose series, 48 h
CCRF-CEM = test system: CCRF-CEM
SK-MEL-2 = test system: SK-MEL-2
SF-295 = test system: SF-295
SF-539 = test system: SF-539
NCI-H460 = test system: NCI-H460
UO-31 = test system: UO-31
NCI-H226 = test system: NCI-H226
HOP-62 = test system: HOP-62
SK-MEL-28 = test system: SK-MEL-28
LOX IMVI = test system: LOX IMVI
MDA-MB-435 = test system: MDA-MB-435
NCI-H23 = test system: NCI-H23
SN12C = test system: SN12C
UACC-257 = test system: UACC-257
MDA-N = test system: MDA-N
A498 = test system: A498
HL-60 = test system: HL-60
KM12 = test system: KM12
SK-MEL-5 = test system: SK-MEL-5
CAKI-1 = test system: CAKI-1
DU-145 = test system: DU-145
SF-268 = test system: SF-268
T47D = test system: T47D
MCF7 = test system: MCF7
NCI-H522 = test system: NCI-H522
SNB-19 = test system: SNB-19
OVCAR-8 = test system: OVCAR-8
U-251 = test system: U-251
786-0 = test system: 786-0
NCI/ADR-RES = test system: NCI/ADR-RES
SNB-75 = test system: SNB-75
Malme-3M = test system: Malme-3M
Hs-578T = test system: Hs-578T
EKVX = test system: EKVX
TK-10 = test system: TK-10
SK-OV-3 = test system: SK-OV-3
OVCAR-3 = test system: OVCAR-3
IGROV-1 = test system: IGROV-1
K562 = test system: K562
HCT-116 = test system: HCT-116
COLO 205 = test system: COLO 205
ACHN = test system: ACHN
A549 = test system: A549
M14 = test system: M14
HCC 2998 = test system: HCC 2998
OVCAR-4 = test system: OVCAR-4
HT-29 = test system: HT-29
PC-3 = test system: PC-3
RXF 393 = test system: RXF 393
UACC-62 = test system: UACC-62
MDA-MB-231 = test system: MDA-MB-231
HCT-15 = test system: HCT-15
SW-620 = test system: SW-620
RPMI-8226 = test system: RPMI-8226
MOLT-4 = test system: MOLT-4
OVCAR-5 = test system: OVCAR-5
SR = test system: SR
HOP-92 = test system: HOP-92

Nc1cnc(Nc2cccc3ccccc23)o1 was tested, and the GI50 (CCRF-CEM) was > 10 µM (inactive), the GI50 (SK-MEL-2) was > 10 µM (inactive) and the GI50 (SF-295) was > 10 µM (inactive). For the same compound, the GI50 (SF-539) was > 10 µM (inactive), the GI50 (NCI-H460) was > 10 µM (inactive) and the GI50 (UO-31) was > 10 µM (inactive). The GI50 (NCI-H226) was > 10 µM (inactive), the GI50 (HOP-62) was > 10 µM (inactive) and the GI50 (SK-MEL-28) was > 10 µM (inactive). For the same compound, the GI50 (LOX IMVI) was > 10 µM (inactive), the GI50 (MDA-MB-435) was > 10 µM (inactive) and the GI50 (NCI-H23) was > 10 µM (inactive). For the same compound, the GI50 (SN12C) was > 10 µM (inactive), the GI50 (UACC-257) was > 10 µM (inactive) and the GI50 (MDA-N) was > 10 µM (inactive). The GI50 (A498) was > 10 µM (inactive), the GI50 (HL-60) was > 10 µM (inactive) and the GI50 (KM12) was > 10 µM (inactive). The GI50 (SK-MEL-5) was > 10 µM (inactive), the GI50 (CAKI-1) was > 10 µM (inactive) and the GI50 (DU-145) was > 10 µM (inactive). For the same compound, the GI50 (SF-268) was > 10 µM (inactive), the GI50 (T47D) was > 10 µM (inactive) and the GI50 (MCF7) was > 10 µM (inactive). For the same compound, the GI50 (NCI-H522) was > 10 µM (inactive), the GI50 (SNB-19) was > 10 µM (inactive) and the GI50 (OVCAR-8) was > 10 µM (inactive). For the same compound, the GI50 (U-251) was > 10 µM (inactive), the GI50 (786-0) was > 10 µM (inactive) and the GI50 (NCI/ADR-RES) was > 10 µM (inactive). The GI50 (SNB-75) was > 10 µM (inactive), the GI50 (Malme-3M) was > 10 µM (inactive) and the GI50 (Hs-578T) was > 10 µM (inactive). For the same compound, the GI50 (EKVX) was > 10 µM (inactive), the GI50 (TK-10) was > 10 µM (inactive) and the GI50 (SK-OV-3) was > 10 µM (inactive). The GI50 (OVCAR-3) was > 10 µM (inactive), the GI50 (IGROV-1) was > 10 µM (inactive) and the GI50 (K562) was > 10 µM (inactive). The GI50 (HCT-116) was > 10 µM (inactive), the GI50 (COLO 205) was > 10 µM (inactive) and the GI50 (ACHN) was > 10 µM (inactive). The GI50 (A549) was > 10 µM (inactive), the GI50 (M14) was > 10 µM (inactive) and the GI50 (HCC 2998) was > 10 µM (inactive). The GI50 (OVCAR-4) was > 10 µM (inactive), the GI50 (HT-29) was > 10 µM (inactive) and the GI50 (PC-3) was > 10 µM (inactive). The GI50 (RXF 393) was > 10 µM (inactive), the GI50 (UACC-62) was > 10 µM (inactive) and the GI50 (MDA-MB-231) was > 10 µM (inactive). The GI50 (HCT-15) was over 10 µM and the GI50 (SW-620) was > 10 µM (inactive).

With CC(C)(C)Nc1noc(=O)n1C(C)(C)C the GI50 (CCRF-CEM) was > 100 µM (inactive), the GI50 (SK-MEL-2) was > 100 µM (inactive) and the GI50 (SF-295) was > 100 µM (inactive). The GI50 (SF-539) was > 100 µM (inactive), the GI50 (NCI-H460) was > 100 µM (inactive) and the GI50 (UO-31) was > 100 µM (inactive). The GI50 (NCI-H226) was > 100 µM (inactive), the GI50 (RPMI-8226) was > 100 µM (inactive) and the GI50 (HOP-62) was > 100 µM (inactive). The GI50 (SK-MEL-28) was > 100 µM (inactive), the GI50 (MOLT-4) was > 100 µM (inactive) and the GI50 (LOX IMVI) was > 100 µM (inactive). For the same compound, the GI50 (MDA-MB-435) was > 100 µM (inactive), the GI50 (NCI-H23) was > 100 µM (inactive) and the GI50 (SN12C) was > 100 µM (inactive). The GI50 (UACC-257) was > 100 µM (inactive), the GI50 (MDA-N) was > 100 µM (inactive) and the GI50 (A498) was > 100 µM (inactive). For the same compound, the GI50 (HL-60) was > 100 µM (inactive), the GI50 (OVCAR-5) was > 100 µM (inactive) and the GI50 (SR) was > 100 µM (inactive). For the same compound, the GI50 (KM12) was > 100 µM (inactive), the GI50 (SK-MEL-5) was > 100 µM (inactive) and the GI50 (CAKI-1) was > 100 µM (inactive). For the same compound, the GI50 (DU-145) was > 100 µM (inactive), the GI50 (SF-268) was > 100 µM (inactive) and the GI50 (MCF7) was > 100 µM (inactive). The GI50 (NCI-H522) was > 100 µM (inactive), the GI50 (SNB-19) was > 100 µM (inactive) and the GI50 (OVCAR-8) was > 100 µM (inactive). The GI50 (U-251) was > 100 µM (inactive), the GI50 (786-0) was > 100 µM (inactive) and the GI50 (NCI/ADR-RES) was > 100 µM (inactive). The GI50 (SNB-75) was > 100 µM (inactive), the GI50 (Malme-3M) was > 100 µM (inactive) and the GI50 (HOP-92) was > 100 µM (inactive). For the same compound, the GI50 (Hs-578T) was > 100 µM (inactive), the GI50 (EKVX) was > 100 µM (inactive) and the GI50 (TK-10) was > 100 µM (inactive). The GI50 (SK-OV-3) was > 100 µM (inactive), the GI50 (OVCAR-3) was > 100 µM (inactive) and the GI50 (IGROV-1) was > 100 µM (inactive). For the same compound, the GI50 (K562) was > 100 µM (inactive), the GI50 (HCT-116) was > 100 µM (inactive) and the GI50 (COLO 205) was > 100 µM (inactive). For the same compound, the GI50 (ACHN) was > 100 µM (inactive), the GI50 (A549) was > 100 µM (inactive) and the GI50 (M14) was > 100 µM (inactive). The GI50 (OVCAR-4) was > 100 µM (inactive), the GI50 (HT-29) was > 100 µM (inactive) and the GI50 (PC-3) was > 100 µM (inactive). For the same compound, the GI50 (RXF 393) was > 100 µM (inactive), the GI50 (UACC-62) was > 100 µM (inactive) and the GI50 (MDA-MB-231) was > 100 µM (inactive). The GI50 (HCT-15) was over 100 µM and the GI50 (SW-620) was > 100 µM (inactive).

In the case of COC(=NC(C)C)NC(C)C, the GI50 (CCRF-CEM) is reported as > 100 µM (inactive), the GI50 (SK-MEL-2) is reported as > 100 µM (inactive) and the GI50 (SF-539) is reported as > 100 µM (inactive). For the same compound, the GI50 (NCI-H460) was > 100 µM (inactive), the GI50 (UO-31) was > 100 µM (inactive) and the GI50 (NCI-H226) was > 100 µM (inactive). The GI50 (RPMI-8226) was > 100 µM (inactive), the GI50 (HOP-62) was > 100 µM (inactive) and the GI50 (SK-MEL-28) was > 100 µM (inactive). For the same compound, the GI50 (MOLT-4) was > 100 µM (inactive), the GI50 (LOX IMVI) was > 100 µM (inactive) and the GI50 (MDA-MB-435) was > 100 µM (inactive). The GI50 (NCI-H23) was > 100 µM (inactive), the GI50 (SN12C) was > 100 µM (inactive) and the GI50 (MDA-N) was > 100 µM (inactive). For the same compound, the GI50 (A498) was > 100 µM (inactive), the GI50 (HL-60) was > 100 µM (inactive) and the GI50 (OVCAR-5) was > 100 µM (inactive). The GI50 (SR) was 77.3 µM (inactive), the GI50 (SK-MEL-5) was > 100 µM (inactive) and the GI50 (DU-145) was > 100 µM (inactive). For the same compound, the GI50 (SF-268) was > 100 µM (inactive), the GI50 (T47D) was > 100 µM (inactive) and the GI50 (MCF7) was > 100 µM (inactive). The GI50 (SNB-19) was > 100 µM (inactive), the GI50 (OVCAR-8) was > 100 µM (inactive) and the GI50 (U-251) was > 100 µM (inactive). The GI50 (786-0) was > 100 µM (inactive), the GI50 (NCI/ADR-RES) was > 100 µM (inactive) and the GI50 (SNB-75) was > 100 µM (inactive). For the same compound, the GI50 (HOP-92) was > 100 µM (inactive), the GI50 (Hs-578T) was > 100 µM (inactive) and the GI50 (EKVX) was > 100 µM (inactive). The GI50 (TK-10) was > 100 µM (inactive), the GI50 (SK-OV-3) was > 100 µM (inactive) and the GI50 (IGROV-1) was > 100 µM (inactive). The GI50 (K562) was > 100 µM (inactive), the GI50 (HCT-116) was > 100 µM (inactive) and the GI50 (COLO 205) was > 100 µM (inactive). The GI50 (ACHN) was > 100 µM (inactive), the GI50 (A549) was > 100 µM (inactive) and the GI50 (M14) was > 100 µM (inactive). For the same compound, the GI50 (HCC 2998) was > 100 µM (inactive), the GI50 (PC-3) was > 100 µM (inactive) and the GI50 (UACC-62) was > 100 µM (inactive). For the same compound, the GI50 (MDA-MB-231) was > 100 µM (inactive), the GI50 (HCT-15) was over 100 µM and the GI50 (SW-620) was > 100 µM (inactive).
